From patent publication US20220265618A1, “METHODS OF TREATING PROSTATE CANCER” (Celgene Quanticel Research, Inc., priority 2021, published 2022)
pIC50: −log10 of the molar value.

Columns and labels:
[1] = test system: MYC gene expression in 22Rv1 cells; assay: qPCR gene expression in 22Rv1 cells: MYC; type: cell-based, human; details: 22RV.1 cells, 48 hours
Experimental: (§1) KLK3, TMPRSS2,MYC and HEXIM1 genes expression was determined by qPCR.

[2] = test system: LNCaP cells overexpressing AR (LNCaP_AR); assay: Proliferation assay (Cell Titer-Glo), LNCaP_AR cells; type: cell-based, human
Experimental: (§2) Proliferation was measured both at Day 0 and at Day 3, and percent of growth was determined using Luciferase assay.
(§3) Proliferation was measured both at Day 0 and at Day 6, and percent of growth was determined using Luciferase assay.
(§4) Proliferation was measured both at Day 0 and at Day 14, and percent of growth was determined using Luciferase assay.
(§5) Cell culture: VCaP, LNCaP, 22Rv1, DU145 and PC3 cancer cell lines were obtained from ATCC. VCaP cells were cultured in DMEM media supplemented with 8% FBS, LNCaP cells were cultured in RPMI1640 media supplemented with 10% FBS, and PC3 cells were cultured in F12 K media supplemented with 10% FBS. LNCaP_AR CRISPRi gCTR, LNCaP_AR CRISPRi gTP53/RB1, and LNCaP_AR shTP53/RB1 cells were obtained from Charles L. Sawyers lab and were cultured in RPMI1640 supplemented with 10% FBS+2 mM L-Glutamine+1 mM Sodium Pyruvate+10 mM Hepes. DKO and TKO cells were obtained from David W. Goodrich lab and were cultured in DMEM media supplemented with 2.5% charcoal-stripped FBS+5 μg/mL of insulin/transferring/selenium (ITS)+10 μg/mL of bovine pituitary extract (BPE)+10 μg/mL of epidermal growth factor+1 μg/mL of cholera toxin. DKO cells have been derived from intact mice so were cultured also in presence of 1nM R1881.
(§6) Proliferation Assay: Cells were plated in a 384-well format and were allowed to adhere 24h before treatment. Drugs were titrated 1:3 from 10 μM to […] with 9 doses in triplicate. Cell proliferation was measured on the day of treatment (Day 0) and on Day 3 or Day 6 or Day 14 using Cell Titer-Glo reagent (Promega) according to the manufacturer's instructions. Cell growth normalized to the DMSO vehicle control and to Day 0 was fitted by nonlinear regression using GraphPad Prism 7.03 (GraphPad Software, Inc.).

[3] = test system: TKO cells (deleted for Pten, Rb1, and Trp53); assay: Proliferation assay (Cell Titer-Glo), TKO cells; type: cell-based, mouse
Experimental: as §3, §5
as §6, with “Cell growth normalized to the DMSO vehicle control and to Day 0 was fitted by nonlinear regression using GraphPad Prism 7.03 (GraphPad Software, Inc.).” left out

[4] = test system: TMPRSS2 gene expression in 22Rv1 cells; assay: qPCR gene expression in 22Rv1 cells: TMPRSS2; type: cell-based, human; details: 22RV.1 cells, 48 hours
Experimental: as §1

[5] = test system: HEXIM1 gene expression in VCaP cells; assay: qPCR gene expression in VCaP cells: HEXIM1; type: cell-based, human; details: 48 h
Experimental: as §1

[6] = test system: LNCaP_AR CRISPRi guide TP53/RB1 cells; assay: Proliferation assay (Cell Titer-Glo), LNCaP_AR CRISPRi TP53/RB1 cells; type: cell-based, human
Experimental: as §4, §5, §6

[7] = test system: HEXIM1 gene expression in 22Rv1 cells; assay: qPCR gene expression in 22Rv1 cells: HEXIM1; type: cell-based, human; details: 22RV.1 cells, 400 nM, 48 hours
Experimental: as §1

22Rv1 cells = assay: Proliferation assay (Cell Titer-Glo), 22Rv1 cells; type: cell-based; details: Homo sapiens, 22Rv1, 72 h; 3 days (FIG. 6); read-out: IC50, proliferation of 22RV.1 cells
Experimental: as §2, §5
as §6, with “Cell growth normalized to the DMSO vehicle control and to Day 0 was fitted by nonlinear regression using GraphPad Prism 7.03 (GraphPad Software, Inc.).” left out

[8] = test system: KLK3 gene expression in VCaP cells; assay: qPCR gene expression in VCaP cells: KLK3; type: cell-based, human; details: 400 nM, 48 h
Experimental: as §1

[9] = test system: TMPRSS2 gene expression in VCaP cells; assay: qPCR gene expression in VCaP cells: TMPRSS2; type: cell-based, human; details: 400 nM, 48 h
Experimental: as §1

LNCaP cells = assay: Proliferation assay (Cell Titer-Glo), LNCaP cells; type: cell-based, human
Experimental: as §2, §3, §5, §6

[10] = test system: MYC gene expression in VCaP cells; assay: qPCR gene expression in VCaP cells: MYC; type: cell-based, human; details: 48 h
Experimental: as §1

[11] = test system: DKO cells (deleted for Pten and Rb1); assay: Proliferation assay (Cell Titer-Glo), DKO cells; type: cell-based, mouse
Experimental: as §4, §5
as §6, with “Cell growth normalized to the DMSO vehicle control and to Day 0 was fitted by nonlinear regression using GraphPad Prism 7.03 (GraphPad Software, Inc.).” left out

PC3 cells = assay: Proliferation assay (Cell Titer-Glo), PC3 cells; type: cell-based, human; details: 3 days (FIG. 11)
Experimental: as §2, §5
as §6, with “Cell growth normalized to the DMSO vehicle control and to Day 0 was fitted by nonlinear regression using GraphPad Prism 7.03 (GraphPad Software, Inc.).” left out

VCaP cells = assay: Proliferation assay (Cell Titer-Glo), VCaP cells; type: cell-based, human
Experimental: as §2, §3
as §5, with “DKO cells have been derived from intact mice so were cultured also in presence of 1nM R1881.” left out
Proliferation Assay: Cells were plated in a 384-well format and were allowed to adhere 24h before treatment. […] Cell proliferation was measured on the day of treatment (Day 0) and on Day 3 or Day 6 or Day 14 using Cell Titer-Glo reagent (Promega) according to the manufacturer's instructions. […]

[12] = test system: Neuroendocrine prostate cancer models; assay: Proliferation assay, all Neuroendocrine prostate cancer models tested (summary); type: cell-based; details: summary over all NEPC models
Experimental: as §5
(§7) Proliferation Assay: Cells were plated in a 384-well format and were allowed to adhere 24h before treatment. Drugs were titrated 1:3 from 10 μM to 0.1 nM with 9 doses in triplicate. Cell proliferation was measured on the day of treatment (Day 0) and on Day 3 or Day 6 or Day 14 using Cell Titer-Glo reagent (Promega) according to the manufacturer's instructions. […]

DU145 cells = assay: Proliferation assay (Cell Titer-Glo), DU145 cells; type: cell-based, human; details: 3 days (FIG. 10)
Experimental: as §2, §5, §7

[13] = test system: KLK3 gene expression in 22Rv1 cells; assay: qPCR gene expression in 22Rv1 cells: KLK3; type: cell-based, human; details: 22RV.1 cells, 48 hours
Experimental: as §1

[14] = test system: LNCaP_AR shTP53/RB1 cells; assay: Proliferation assay (Cell Titer-Glo), LNCaP_AR shTP53/RB1 cells; type: cell-based, human
Experimental: as §4, §5, §6

SMILES: Cn1cc(-c2cc(S(C)(=O)=O)ccc2OCC2CC2)c2ccccc2c1=O [Compound A, 4-[2-(cyclopropylmethoxy)-5-methylsulfonylphenyl]-2-methylisoquinolin-1-one]
- MYC downregulation ([1]; 40 nM): 64%
- MYC downregulation ([1]; 400 nM): 93.9%
- growth arrest of LNCaP_AR cells ([2]; 3 days (FIG. 4A)): complete growth arrest
- cytotoxicity in LNCaP_AR cells ([2]; highest dose, longer treatment (6 days, FIG. 4B)): cytotoxicity
- concentration causing cell death in LNCaP_AR cells on re-treatment ([2]; treated Day 0 and Day 6, total 14 days (FIG. 5)): > 1 µM
- growth arrest of TKO cells ([3]; at 3 uM, treated Day 0 and Day 3, total 6 days (FIG. 9A)): 100%
- cytotoxic activity in TKO cells ([3]; at the highest concentrations (FIG. 9A)): cytotoxic activity
- TMPRSS2 reduction ([4]; 40 nM): 93.2%
- TMPRSS2 reduction ([4]; 400 nM): 95.3%
- HEXIM1 upregulation as compared to DMSO ([5]; 40 nM): 121.1%
- HEXIM1 upregulation as compared to DMSO ([5]; 400 nM): 754%
- pIC50 ([6]; Homo sapiens, LNCaP/AR, treated Day 0 and Day 6, total 14 days (FIG. 8A)): 6.66
- cell death in LNCaP_AR cells depleted for TP53 and RB1 (CRISPRi) ([6]; summary statement): induced cell death
- growth arrest of LNCaP_AR CRISPRi guide TP53/RB1 cells ([6]; treated Day 0 and Day 6, total 14 days (FIG. 8A)): 100%
- HEXIM1 induction [7]: 31%
- pIC50 (22Rv1 cells): 6.70
- KLK3 downregulation as compared to DMSO [8]: 80.2%
- TMPRSS2 downregulation as compared to DMSO [9]: 26.3%
- pIC50 (LNCaP cells; Homo sapiens, LNCaP, 144 h, prolonged treatment (6 days) (FIG. 3B), read-out: half maximal inhibitory concentration (IC50), LNCaP cells): 6.31
- growth arrest of LNCaP cells (LNCaP cells; after 3 days of treatment (FIG. 3A)): 100%
- cell death in LNCaP cells (LNCaP cells; prolonged treatment (6 days)): induced cell death
- reduction in MYC expression ([10]; 40 nM): 18.9%
- MYC downregulation ([10]; 400 nM): 81.1%
- growth arrest of DKO cells ([11]; at 1 uM, treated Day 0 and Day 6, total 14 days (FIG. 9B)): 100%
- cytotoxic activity in DKO cells ([11]; at the highest concentrations (FIG. 9B)): cytotoxic activity
- reduction of PC3 proliferation (PC3 cells): 80%
- pIC50 (PC3 cells; Homo sapiens, PC-3, 72 h): 6.26
- growth arrest of VCaP cell proliferation (VCaP cells; at 0.3 μM Compound A, 3 and 6 days (FIGS. 1A-1B)): 100%
- cytotoxic effects in VCaP cells (VCaP cells; at the highest concentration (FIGS. 1A-1B)): cytotoxic effects
- reduction of cell proliferation in all Neuroendocrine prostate cancer models tested [12]: > 76%
- reduction of DU145 proliferation (DU145 cells): 76%
- pIC50 (DU145 cells; Homo sapiens, DU-145, 72 h): 6.17
- KLK3 downregulation ([13]; 40 nM): 98.8%
- KLK3 downregulation ([13]; 400 nM): 99.51%
- pIC50 ([14]; Homo sapiens, LNCaP/AR, treated Day 0 and Day 6, total 14 days (FIG. 8B)): 7.22
- cell death in LNCaP_AR cells depleted for TP53 and RB1 (shRNA) ([14]; summary statement): induced cell death
- growth arrest of LNCaP_AR shTP53/RB1 cells ([14]; treated Day 0 and Day 6, total 14 days (FIG. 8B)): 100%
